Data on 24 molecules can be found in US8614327B2 (Vertex Pharmaceuticals Incorporated, priority 2004, dated 2013).

The target in the assay is T1, ΔF508-CFTR (Homo sapiens, UniProt P13569, DEL508-508).
T1 construct: expressed in transfected cells
The experiment in a line: Membrane potential optical (FRET/VIPR) assay, identification of potentiator compounds. The assay is classed as cell-based. As to conditions: Table 3, assay not given; for % Activity: relative efficacy. The essentials: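 Double-addition potentiator screen: compound delivered in gluconate-substituted Cl^--free medium, membrane potential followed via CC2-DMPE/DiSBAC2(3) FRET on VIPR. Cells were ΔF508-CFTR-expressing NIH3T3 mouse fibroblasts, held 2 h at 37° C. then 24 h at 27° C. before assay.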

Bounds are passed on as bounds.

T1 sequence (P13569 with tags, fused parts or gaps DEL508-508): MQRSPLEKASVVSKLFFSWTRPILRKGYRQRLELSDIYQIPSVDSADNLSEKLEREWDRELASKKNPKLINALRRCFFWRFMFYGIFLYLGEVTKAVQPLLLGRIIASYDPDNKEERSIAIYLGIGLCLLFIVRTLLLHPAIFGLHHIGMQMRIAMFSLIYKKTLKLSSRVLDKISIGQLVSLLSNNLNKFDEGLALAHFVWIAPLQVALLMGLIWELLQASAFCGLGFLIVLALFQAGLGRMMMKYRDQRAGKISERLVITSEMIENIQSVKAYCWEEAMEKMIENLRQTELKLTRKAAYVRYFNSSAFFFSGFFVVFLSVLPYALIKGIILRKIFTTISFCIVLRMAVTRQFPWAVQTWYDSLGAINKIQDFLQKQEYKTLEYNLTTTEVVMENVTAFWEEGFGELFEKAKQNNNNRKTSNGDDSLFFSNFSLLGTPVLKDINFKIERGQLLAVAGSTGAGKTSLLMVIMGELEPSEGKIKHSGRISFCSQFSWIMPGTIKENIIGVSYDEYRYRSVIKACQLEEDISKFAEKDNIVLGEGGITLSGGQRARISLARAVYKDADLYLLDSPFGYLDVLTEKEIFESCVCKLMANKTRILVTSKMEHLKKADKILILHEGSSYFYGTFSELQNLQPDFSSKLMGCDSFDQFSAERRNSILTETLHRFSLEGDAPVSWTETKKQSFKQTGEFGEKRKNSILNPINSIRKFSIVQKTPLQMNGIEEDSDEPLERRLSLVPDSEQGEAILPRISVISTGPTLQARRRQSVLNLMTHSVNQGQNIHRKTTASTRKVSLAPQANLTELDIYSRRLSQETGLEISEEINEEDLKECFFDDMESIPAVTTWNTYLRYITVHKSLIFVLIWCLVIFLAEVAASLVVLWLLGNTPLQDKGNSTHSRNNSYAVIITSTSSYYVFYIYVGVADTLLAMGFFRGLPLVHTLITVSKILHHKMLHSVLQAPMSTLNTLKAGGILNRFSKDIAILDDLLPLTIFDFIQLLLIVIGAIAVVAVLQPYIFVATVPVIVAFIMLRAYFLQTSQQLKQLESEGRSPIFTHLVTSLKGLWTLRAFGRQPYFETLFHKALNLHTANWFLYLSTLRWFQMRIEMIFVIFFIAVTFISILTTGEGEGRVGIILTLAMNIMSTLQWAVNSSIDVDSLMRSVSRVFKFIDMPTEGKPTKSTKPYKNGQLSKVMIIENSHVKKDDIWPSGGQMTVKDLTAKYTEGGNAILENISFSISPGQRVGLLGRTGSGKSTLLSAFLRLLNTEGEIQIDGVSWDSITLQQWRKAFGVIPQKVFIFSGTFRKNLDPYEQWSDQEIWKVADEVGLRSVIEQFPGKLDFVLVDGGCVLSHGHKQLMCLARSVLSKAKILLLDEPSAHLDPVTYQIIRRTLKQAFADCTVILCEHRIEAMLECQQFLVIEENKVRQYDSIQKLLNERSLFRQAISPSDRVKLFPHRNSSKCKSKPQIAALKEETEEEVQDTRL

On to `CCOc1ccccc1-c1cc2cc[nH]c2cc1NC(=O)c1c[nH]c2ccccc2c1=O` [Compound 327, N-[5-(2-ethoxyphenyl)-1H-indol-6-yl]-4-oxo-1H-quinoline-3-carboxamide], for which the EC50 is less than 10 µM and the “% Activity” value is recorded as “++ (between 25% to 100%)”.

Take `Cc1ccc2[nH]cc(C(=O)Nc3ccc(N4CCC(C)(C)C4)cc3C(F)(F)F)c(=O)c2c1` [Compound 489, N-[4-(3,3-dimethylpyrrolidin-1-yl)-2-(trifluoromethyl)phenyl]-6-methyl-4-oxo-1H-quinoline-3-carboxamide]: the EC50 is less than 10 µM and the “% Activity” value is on record as “++ (between 25% to 100%)”.

In the case of `CC(=O)Nc1cccc(NC(=O)c2c[nH]c3ccccc3c2=O)c1` [Compound 419, N-(3-acetylaminophenyl)-4-oxo-1H-quinoline-3-carboxamide], the half-maximal effective concentration (EC50) lay in the range of 25 to 60 µM and the “% Activity” value is given as “+ (<25%)”.

In the case of `O=C(Nc1cccc(OC(F)(F)F)c1)c1c[nH]c2ccccc2c1=O` [Compound 62, 4-oxo-N-[3-(trifluoromethoxy)phenyl]-1H-quinoline-3-carboxamide], the concentration for a half-maximal effect (EC50) is less than 10 µM and the “% Activity” value is “++ (between 25% to 100%)”.

On to `Cc1cccc(-c2ccccc2NC(=O)c2c[nH]c3ccccc3c2=O)c1` [Compound 52, N-[2-(m-tolyl)phenyl]-4-oxo-1H-quinoline-3-carboxamide], for which the EC50 was less than 10 µM and the “% Activity” value is on record as “++ (between 25% to 100%)”.

Consider `CCc1cccc(NC(=O)c2c[nH]c3ccccc3c2=O)n1` [Compound 125, N-(6-ethyl-2-pyridyl)-4-oxo-1H-quinoline-3-carboxamide], for which the EC50 lay in the range of 10 to 25 µM and the “% Activity” value was “++ (between 25% to 100%)”.

With `Cc1ccc(C(F)(F)F)cc1NC(=O)c1c[nH]c2cccc(O)c2c1=O` [Compound 676, 5-hydroxy-N-[2-methyl-5-(trifluoromethyl)phenyl]-4-oxo-1H-quinoline-3-carboxamide], the EC50 was less than 10 µM and the “% Activity” value was “++ (between 25% to 100%)”.

For the molecule `O=C(Nc1ccc(C2CCCCC2)c(O)c1)c1c[nH]c2ccc(F)cc2c1=O` [Compound 651, N-(4-cyclohexyl-3-hydroxy-phenyl)-6-fluoro-4-oxo-1H-quinoline-3-carboxamide], the EC50 is less than 10 µM and the “% Activity” value was “++ (between 25% to 100%)”.

`CC(C)(C)COC(=O)NCC(C)(C)c1ccc(NC(=O)c2c[nH]c3ccccc3c2=O)cc1` [Compound 341, [2-methyl-2-[4-[(4-oxo-1H-quinolin-3-yl)carbonylamino]phenyl]-propyl]aminoformic acid neopentyl ester]: the EC50 is less than 10 µM and the “% Activity” value was “++ (between 25% to 100%)”.

For `CC(C)(C)c1cc(Cl)c(O)cc1NC(=O)c1c[nH]c2ccccc2c1=O` [Compound 426, N-(4-chloro-5-hydroxy-2-tert-butyl-phenyl)-4-oxo-1H-quinoline-3-carboxamide], the EC50 was less than 10 µM and the “% Activity” value is recorded as “++ (between 25% to 100%)”.

`CN(C)c1ccc(-c2ccccc2NC(=O)c2c[nH]c3ccccc3c2=O)cc1` [Compound 12, N-[2-(4-dimethylaminophenyl)phenyl]-4-oxo-1H-quinoline-3-carboxamide]: the EC50 is less than 10 µM and the “% Activity” value is listed as “++ (between 25% to 100%)”.

On to `C[C@H]1CCCN1c1ccc(NC(=O)c2c[nH]c3ccc(F)cc3c2=O)c(C(F)(F)F)c1` [Compound 714, (S)-6-fluoro-N-(4-(2-methylpyrrolidin-1-yl)-2-(trifluoromethyl)phenyl)-4-oxo-1,4-dihydroquinoline-3-carboxamide], for which the EC50 was less than 10 µM and the “% Activity” value is given as “++ (between 25% to 100%)”.

As for `O=C(Nc1ccc(C(F)(F)F)cn1)c1c[nH]c2ccccc2c1=O` [Compound 74, 4-oxo-N-[5-(trifluoromethyl)-2-pyridyl]-1H-quinoline-3-carboxamide], the EC50 was 25 to 60 µM and the “% Activity” value is reported as “+ (<25%)”.

Regarding `COc1cccc(NC(=O)c2c[nH]c3ccccc3c2=O)c1` [Compound 408, N-(3-methoxyphenyl)-4-oxo-1H-quinoline-3-carboxamide], the EC50 was less than 10 µM and the “% Activity” value was “++ (between 25% to 100%)”.

With `CCCc1ccc(NC(=O)OC)cc1NC(=O)c1c[nH]c2ccccc2c1=O` [Compound 471, [3-[(4-oxo-1H-quinoline-3-yl)carbonylamino]-4-propyl-phenyl]aminoformic acid methyl ester], the EC50 is less than 10 µM and the “% Activity” value was “++ (between 25% to 100%)”.

Regarding `CCc1cc(C(C)(C)C)c(O)cc1NC(=O)c1c[nH]c2ccc(F)cc2c1=O` [Compound 649, N-(2-ethyl-5-hydroxy-4-tert-butyl-phenyl)-6-fluoro-4-oxo-1H-quinoline-3-carboxamide], the concentration for a half-maximal effect (EC50) is less than 10 µM and the “% Activity” value was “++ (between 25% to 100%)”.

Consider `O=C(Nc1cc2[nH]ccc2cc1-c1ccccc1)c1c[nH]c2ccccc2c1=O` [Compound 158, 4-Oxo-N-(5-phenyl-1H-indol-6-yl)-1H-quinoline-3-carboxamide], for which the EC50 was less than 10 µM and the “% Activity” value was “++ (between 25% to 100%)”.

`CC(C)(C)c1cc(Cl)c(NC(=O)c2c[nH]c3ccccc3c2=O)cc1O` [Compound 291, N-(2-chloro-5-hydroxy-4-tert-butyl-phenyl)-4-oxo-1H-quinoline-3-carboxamide]: the “% Activity” value is on record as “++ (between 25% to 100%)”.

Turning to `COc1ccc(-c2ccccc2NC(=O)c2c[nH]c3ccccc3c2=O)cc1OC` [Compound 436, N-[2-(3,4-dimethoxyphenyl)phenyl]-4-oxo-1H-quinoline-3-carboxamide], the EC50 was less than 10 µM and the “% Activity” value is on record as “++ (between 25% to 100%)”.

For the molecule `CC(C)(C)c1c[nH]c2cc(NC(=O)c3c[nH]c4ccc(F)cc4c3=O)ccc12` [Compound 554, 6-fluoro-4-oxo-N-(3-tert-butyl-1H-indol-6-yl)-1H-quinoline-3-carboxamide], the EC50 is less than 10 µM and the “% Activity” value is given as “++ (between 25% to 100%)”.

As to `CCOc1ccccc1-c1ccccc1NC(=O)c1c[nH]c2ccccc2c1=O` [Compound 344, N-[2-(2-ethoxyphenyl)phenyl]-4-oxo-1H-quinoline-3-carboxamide], the “% Activity” value is reported as “++ (between 25% to 100%)”.

With `CC(C)(C)c1cc(C(C)(C)C)c(NC(=O)c2c[nH]c3ccc(C#N)cc3c2=O)cc1O` [Compound 525, 6-cyano-N-(5-hydroxy-2,4-ditert-butyl-phenyl)-4-oxo-1H-quinoline-3-carboxamide], the EC50 was less than 10 µM and the “% Activity” value was “+ (<25%)”.

Regarding `O=C(Nc1ccc2cn[nH]c2c1)c1c[nH]c2ccccc2c1=O` [Compound 284, N-(1H-indazol-6-yl)-4-oxo-1H-quinoline-3-carboxamide], the EC50 lay in the range of 10 to 25 µM and the “% Activity” value is listed as “++ (between 25% to 100%)”.

Regarding `CCc1ccc(N(C)C)cc1NC(=O)c1c[nH]c2ccccc2c1=O` [Compound 409, N-(5-dimethylamino-2-ethyl-phenyl)-4-oxo-1H-quinoline-3-carboxamide], the EC50 was less than 10 µM and the “% Activity” value is “++ (between 25% to 100%)”.

Broadly, the EC50 is the midpoint of the concentration-response curve.
